In ChEMBL document CHEMBL4038324, “Amidoalkylindoles as Potent and Selective Cannabinoid Type 2 Receptor Agonists with in Vivo Efficacy in a Mouse Model of Multiple Sclerosis” (J Med Chem, 2017):
Active and inactive are the calls of the source. No cut-off for these calls is given here.

Columns and labels:
[1] = molecular target: T1, Cannabinoid receptor 1 (Homo sapiens, UniProt P21554); assay: Agonist activity at human CB1 receptor expressed in CHO cells assessed as induction of Ca2+ flux after 10 mins by Fluor-4 AM dye based assay; format: cell-based
[2] = molecular target: Cannabinoid receptor 1 (Rattus norvegicus, UniProt P20272); assay: Agonist activity at rat CB1 receptor expressed in mouse AtT20 cells by FLIPR membrane potential assay; format: cell-based
[3] = molecular target: T2, Cannabinoid receptor 2 (Homo sapiens, UniProt P34972); assay: Agonist activity at human CB2 receptor expressed in CHO cells assessed as induction of Ca2+ flux after 10 mins by Fluor-4 AM dye based assay; format: functional, cell-based
[4] = molecular target: T3, Cannabinoid receptor 1 (CB1) (Homo sapiens, UniProt P21554); assay: Antagonist activity at human CB1 receptor expressed in CHO cells assessed as inhibition of CP55940-induced Ca2+ flux at 10 uM preincubated for 10 mins followed by agonist addition by Fluor-4 AM dye based assay; format: cell-based; settings: CHO cells expressing human CB1 receptor
[5] = molecular target: T2, Cannabinoid receptor 2; assay: Agonist activity at human CB2 receptor expressed in CHO cells assessed as induction of Ca2+ flux after 10 mins by Fluor-4 AM dye based assay relative to CP55940; format: functional, cell-based
[6] = molecular target: T2, Cannabinoid receptor 2; assay: Antagonist activity at human CB2 receptor expressed in CHO cells assessed as inhibition of CP55940-induced Ca2+ flux at 10 uM preincubated for 10 mins followed by agonist addition by Fluor-4 AM dye based assay; format: functional, cell-based
[7] = molecular target: T2, Cannabinoid receptor 2; assay: Agonist activity at human N-terminal HA-tagged CB2 receptor expressed in mouse AtT20 cells by FLIPR membrane potential assay; format: cell-based
[8] = molecular target: T3, Cannabinoid receptor 1 (CB1); assay: Agonist activity at human CB1 receptor expressed in CHO cells assessed as induction of Ca2+ flux after 10 mins by Fluor-4 AM dye based assay relative to CP55940; format: cell-based; settings: CHO cells expressing human CB1 receptor
[9] = Tmax in C57 mouse at 10 mg/kg, ip measured up to 2 hrs by LC-MS/MS analysis; format: ADME, organism-based; settings: in vivo
[10] = system: Mus musculus; assay: In vivo partial agonist activity at CB2 receptor in EAE C57BL/6 mouse model assessed as reduction in leukocyte infiltration in white matter region at 10 to 30 mg/kg, ip administered from day 3 after immunization with MOG until day 19 by H and E staining based assay; format: functional, organism-based
[11] = Ratio of Cmax in C57 mouse at 10 mg/kg, ip to EC50 for human CB2 receptor expressed in CHO cells assessed as induction of Ca2+ flux
[12] = system: Mus musculus; assay: In vivo partial agonist activity at CB2 receptor in EAE C57BL/6 mouse model assessed as reduction in clinical signs at 10 to 30 mg/kg, ip administered from day 3 after immunization with MOG until day 27; format: functional, organism-based
[13] = AUC (0 to infinity) in C57 mouse at 10 mg/kg, ip measured up to 2 hrs by LC-MS/MS analysis; format: ADME, organism-based; set-up: dose 10 mg/kg, time infinity, route intraperitoneal; settings: in vivo
[14] = system: Mus musculus; assay: AUMC (0 to infinity) in C57 mouse at 10 mg/kg, ip measured up to 2 hrs by LC-MS/MS analysis; format: ADME, organism-based; settings: in vivo
[15] = molecular target: T2, Cannabinoid receptor 2; assay: Agonist activity at human CB2 receptor expressed in CHO cells assessed as inhibition of forskolin-induced cAMP accumulation preincubated for 20 mins followed by forskolin addition measured after 30 mins by HTRF assay; format: functional, cell-based
[16] = system: Mus musculus; assay: In vivo partial agonist activity at CB2 receptor in EAE C57BL/6 mouse model assessed as reduction in extensive demyelination in white matter at 10 to 30 mg/kg, ip administered from day 3 after immunization with MOG until day 19 by Luxol fast blue staining based assay; format: functional, organism-based
[17] = MRT in C57 mouse at 10 mg/kg, ip measured up to 2 hrs by LC-MS/MS analysis; format: ADME, organism-based; settings: in vivo
[18] = Half life in C57 mouse at 10 mg/kg, ip measured up to 2 hrs by LC-MS/MS analysis; format: ADME, organism-based; settings: in vivo
[19] = Elimination rate constant in C57 mouse at 10 mg/kg, ip measured up to 2 hrs by LC-MS/MS analysis; format: ADME, organism-based; settings: in vivo
[20] = AUC (0 to t) in C57 mouse at 10 mg/kg, ip measured up to 2 hrs by LC-MS/MS analysis; format: ADME, organism-based; set-up: dose 10 mg/kg, time < 2 hr, route intraperitoneal; settings: in vivo
[21] = Cmax in C57 mouse at 10 mg/kg, ip measured up to 2 hrs by LC-MS/MS analysis; format: ADME, organism-based; set-up: dose 10 mg/kg, route intraperitoneal; settings: in vivo
[22] = molecular target: T1, Cannabinoid receptor 1; assay: Agonist activity at human CB1 receptor expressed in CHO cells assessed as induction of Ca2+ flux at 10 uM after 10 mins by Fluor-4 AM dye based assay; format: cell-based
[23] = system: Mus musculus; assay: AUMC (0 to t) in C57 mouse at 10 mg/kg, ip measured up to 2 hrs by LC-MS/MS analysis; format: ADME, organism-based; settings: in vivo

T3 sequence (P21554 whole entry): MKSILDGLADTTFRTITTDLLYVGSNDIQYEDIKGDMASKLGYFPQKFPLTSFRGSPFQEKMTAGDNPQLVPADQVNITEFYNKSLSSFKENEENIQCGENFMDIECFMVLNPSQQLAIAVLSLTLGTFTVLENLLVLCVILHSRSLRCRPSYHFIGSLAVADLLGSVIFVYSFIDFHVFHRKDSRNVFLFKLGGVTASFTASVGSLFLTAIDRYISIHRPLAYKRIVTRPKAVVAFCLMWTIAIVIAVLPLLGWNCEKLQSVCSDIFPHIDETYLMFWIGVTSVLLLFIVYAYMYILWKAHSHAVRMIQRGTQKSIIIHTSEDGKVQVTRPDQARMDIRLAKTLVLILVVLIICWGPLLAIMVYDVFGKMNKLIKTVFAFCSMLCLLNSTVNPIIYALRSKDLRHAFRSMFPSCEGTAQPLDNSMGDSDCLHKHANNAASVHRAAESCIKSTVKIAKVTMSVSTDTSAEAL
T2 sequence (P34972 whole entry): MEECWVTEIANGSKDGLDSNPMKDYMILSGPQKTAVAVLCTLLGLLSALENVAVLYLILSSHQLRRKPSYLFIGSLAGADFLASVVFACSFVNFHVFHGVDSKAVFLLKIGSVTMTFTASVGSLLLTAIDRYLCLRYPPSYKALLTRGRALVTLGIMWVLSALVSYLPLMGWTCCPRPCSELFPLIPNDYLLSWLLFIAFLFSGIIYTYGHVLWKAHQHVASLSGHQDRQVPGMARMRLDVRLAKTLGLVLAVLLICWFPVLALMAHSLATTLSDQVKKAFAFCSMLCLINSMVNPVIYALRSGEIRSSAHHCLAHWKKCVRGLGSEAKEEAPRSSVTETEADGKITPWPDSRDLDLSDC
T1 sequence (P21554 whole entry): as the sequence (P21554 whole entry) above
Chain of Cannabinoid receptor 1 (Rattus norvegicus, UniProt P20272) (P20272 whole entry): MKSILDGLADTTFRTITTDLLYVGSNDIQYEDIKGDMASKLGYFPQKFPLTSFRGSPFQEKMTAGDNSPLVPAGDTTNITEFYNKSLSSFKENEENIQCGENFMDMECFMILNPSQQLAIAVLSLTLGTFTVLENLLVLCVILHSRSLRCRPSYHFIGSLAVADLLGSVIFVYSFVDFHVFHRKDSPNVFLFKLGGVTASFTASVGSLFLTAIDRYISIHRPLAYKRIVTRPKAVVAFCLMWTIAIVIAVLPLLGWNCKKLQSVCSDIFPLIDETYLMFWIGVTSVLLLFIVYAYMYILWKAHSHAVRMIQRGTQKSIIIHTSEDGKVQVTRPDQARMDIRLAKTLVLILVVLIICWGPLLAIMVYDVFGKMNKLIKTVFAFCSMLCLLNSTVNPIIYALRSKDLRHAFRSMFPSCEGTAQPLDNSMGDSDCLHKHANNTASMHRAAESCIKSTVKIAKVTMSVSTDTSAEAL

With `CCCCCn1cc(C(=O)NC23CC4CC(CC(C4)C2)C3)c2ccccc21` the EC50 [1] was 39 nM, the EC50 [2] was 34 nM and the EC50 [3] was 59 nM. The inhibition at 10 min, 10 µM [4] was less than 50%, the Emax [5] was 66.3% and the inhibition [6] was less than 50%. For the same compound, the EC50 [7] was 29 nM and the Emax at 10 min [8] was 68.3%.

With `O=C(NC12CC3CC(CC(C3)C1)C2)c1cc2ccccc2n1CCCCO` the Tmax [9] was 0.25 h, the Activity [10] was “Active” and the Ratio [11] was 8. For the same compound, the Activity [12] was “Active”, the AUC(0-inf) [13] was 428 ng·h/mL and the AUMC [14] was 637 hr.hr.ng/ml. It also gave an EC50 [3] of 120 nM, an inhibition at 10 min, 10 µM [4] of less than 50% and an EC50 [15] of 142 nM. For the same compound, the Activity [16] was “Active”, the Emax [5] was 85% and the MRT [17] was 1.51 h. It also gave a half-life [18] of 1.04 h, an inhibition [6] of less than 50% and a k el at 2 h [19] of 0.000189 s⁻¹. For the same compound, the AUC(0-t) at 2 h [20] was 317 ng·h/mL, the Cmax [21] was 350 ng/mL and the Activity [22] was less than 50%. The AUMCt [23] was 248 hr.hr.ng/ml.
